Results reported in patent US7507727B2, “Substituted quinobenzoxazine analogs and methods of using thereof” (Cylene Pharmaceuticals, Inc., priority 2003, dated 2009).

These molecules were tested against c-Myc template DNA (c-myc quadruplex) (assay: Quadruplex binding / stop assay (Taq polymerase arrest, capillary electrophoresis)). Conditions: read-out: S DATA; Table 1D, stop assay data.

| IC50 [µM] | Compound |
| --- | --- |
| 3.6 | CN1CCCC1CCNC(=O)c1cn2c3c(c(N4CCC(c5cnccn5)C4)c(F)cc3c1=O)Oc1cc(Cl)ccc1-2 (centres unmarked) [compound 1765] |
| 8.2 | CC(C)N1CCN(c2c(F)cc3c(=O)c(C(=O)NCCN4CCCC4)cn4c3c2Oc2cccnc2-4)CC1 [compound 1801] |
| 10 | CN1CCN(c2c(F)cc3c(=O)c(C(=O)NCCN4CCCC4)cn4c3c2Oc2cc(Cl)ccc2-4)CC1 [compound 1817] |
| 0.75 | CCOC(CCCNc1c(F)cc2c(=O)c(C(=O)NCCC3CCCN3C)cn3c2c1Oc1cc2ccccc2cc1-3)OCC (centres unmarked) [compound 1674] |
| > 15 | CC1(C)CC(NC(=O)c2cn3c4c(c(NCCCN5CCOCC5)ccc4c2=O)Oc2cc4ccccc4cc2-3)CC(C)(C)N1 [compound 1531] |
| 3 | CN1CCCC1CCNC(=O)c1cn2c3c(c(NC[C@H]4CCCO4)c(F)cc3c1=O)Oc1cc3ccccc3cc1-2 (some centres unmarked) [compound 1736] |
| 2.5 | CN1CCCC1CCNC(=O)c1cn2c3c(c(NC[C@H]4CCCO4)c(F)cc3c1=O)Oc1cc3ccccc3cc1-2 (some centres unmarked) [compound 1735] |
| 5.7 | CN1CCC[C@H]1CCNC(=O)c1cn2c3c(c(N4CCC(c5cnccn5)C4)c(F)cc3c1=O)Oc1ccccc1-2 (some centres unmarked) [compound 1762] |
| 6.3 | C[N+]1([O-])CCC[C@@H]1CCNC(=O)c1cn2c3c(c(N4CCC(c5cnccn5)C4)c(F)cc3c1=O)Oc1cc3ccccc3cc1-2 (some centres unmarked) [compound 1766] |
| > 15 | CN(C)CC(C)(C)CNC(=O)c1cn2c3c(c(NCCN4CCCC4)c(F)cc3c1=O)Oc1ccccc1-2 [compound 1600] |
| > 15 | CN(C)CCCCNC(=O)c1cn2c3c(c(NCCN4CCOCC4)c(F)cc3c1=O)Oc1ccccc1-2 [compound 1610] |
| 1.75 | CN1CCCC1CCNC(=O)c1cn2c3c(c(-n4cncc4-c4cnccn4)c(F)cc3c1=O)Oc1cc3ccccc3cc1-2 (centres unmarked) [compound 1761] |
| 1 | CN1CCCC1CCNC(=O)c1cn2c3c(c(NC4CC(C)(C)NC(C)(C)C4)c(F)cc3c1=O)Oc1cc3ccccc3cc1-2 (centres unmarked) [compound 1478] |
| 1.75 | CN1CCCC1CCNC(=O)c1cn2c3c(c(NC(=O)C4CCCNC4)c(F)cc3c1=O)Oc1cc3ccccc3cc1-2 (centres unmarked) [compound 1480] |
| 0.75 | CN1CCN(CCCNc2ccc3c(=O)c(C(=O)NCCC4CCCN4C)cn4c3c2Oc2cc3ccccc3cc2-4)CC1 (centres unmarked) [compound 1553] |
| 0.75 | CN1CCCC1CCNC(=O)c1cn2c3c(c(NCC4CCN(C(=O)OC(C)(C)C)C4)c(F)cc3c1=O)Oc1cc3ccccc3cc1-2 (centres unmarked) [compound 1506] |
| 1.12 | O=C(NCCN1CCCC1)c1cn2c3c(c(N4CCC(c5cnccn5)C4)c(F)cc3c1=O)Oc1cc3ccccc3cc1-2 (centres unmarked) [compound 1664] |
| 0.75 | CN(C)CCCCNC(=O)c1cn2c3c(c(NCCC4CCCN4C)ccc3c1=O)Oc1cc3ccccc3cc1-2 (centres unmarked) [compound 1526] |
| 1 | N=C(N)NCCCCNC(=O)c1cn2c3c(c(NCCCN4CCOCC4)c(F)cc3c1=O)Oc1cc3ccccc3cc1-2 [compound 1650] |
| 1.75 | CCN(CC)C(=O)C1CCCN(c2c(F)cc3c(=O)c(C(=O)NCCC4CCCN4C)cn4c3c2Oc2cc3ccccc3cc2-4)C1 (centres unmarked) [compound 1479] |
| 1.75 | COc1ccc(CCNc2c(F)cc3c(=O)c(C(=O)NCCC4CCCN4C)cn4c3c2Oc2cc3ccccc3cc2-4)cc1 (centres unmarked) [compound 1663] |
| > 15 | NC1CCN(c2c(F)cc3c(=O)c(C(=O)NCCCN4CCOCC4)cn4c3c2Oc2ccccc2-4)C1 (centres unmarked) [compound 1619] |
| > 15 | CC(C)N1CCN(c2c(F)cc3c(=O)c(C(=O)NCCN4CCOCC4)cn4c3c2Oc2ccccc2-4)CC1 [compound 1562] |

Same assay, conditions: read-out: Stop Data c-Myc μM; concentration at which 50% of the DNA was arrested (arrested:full-length 1:1)

| IC50 [µM] | Compound |
| --- | --- |
| 1.75 | CN(C)CCCCNc1c(F)cc2c(=O)c(C(=O)O)cn3c2c1Oc1cc2ccccc2cc1-3 [compound 8] |
| 0.75 | CN1CCCC1CCNC(=O)c1cn2c3c(c(NCCN4CCCCC4)c(F)cc3c1=O)Oc1cc3ccccc3cc1-2 (centres unmarked) [compound 432] |
| 0.9 | CN1CCN(c2c(F)cc3c(=O)c(C(=O)NCCC4CCCN4C)cn4c5cc6c(=O)c7ccccc7c(=O)c6cc5oc2c34)CC1 (centres unmarked) [compound 351] |
| 0.75 | CN1CCCC1CCNCC(=O)N[C@@H]1CCN(c2c(F)cc3c(=O)c(C(=O)NCCCn4ccnc4)cn4c3c2Oc2cc3c(cc2-4)oc2ccccc23)C1 (some centres unmarked) [compound 414] |
| 1.75 | CC1(C)CC(NC(=O)c2cn3c4c(c(N5CCC(NC(=O)OC(C)(C)C)C5)ccc4c2=O)Oc2cc4ccccc4cc2-3)CC(C)(C)N1 (centres unmarked) [compound 274] |
| 0.18 | O=C(NCCN1CCCC1)c1cn2c3cc4c(cc3oc3c(N5CC6CCCNC6C5)c(F)cc(c1=O)c32)c(=O)c1ccccc14 (centres unmarked) [compound 590] |
| 1.75 | CC1CCCN(CCCNc2c(F)cc3c(=O)c(C(=O)NCCC4CCCN4C)cn4c3c2Oc2cc3ccccc3cc2-4)C1 (centres unmarked) [compound 295] |
| 0.75 | CN1CCN(CCCNc2c(F)cc3c(=O)c(C(=O)O)cn4c3c2Oc2cc3ccccc3cc2-4)CC1 [compound 398] |
| 1.75 | CN(C)CCCCNc1c(F)cc2c(=O)c(C(=O)N3CC[C@H](N)C3)cn3c4cc5c(cc4oc1c23)c(=O)c1ccccc15 [compound 217] |
| 2.5 | CN1CCN(CCCNc2c(F)cc3c(=O)c(C(=O)N4CC[C@@H](NC(=O)OC(C)(C)C)C4)cn4c3c2Oc2cc3ccccc3cc2-4)CC1 [compound 61] |
| 0.375 | O=C(NCCCN1CCOCC1)c1cn2c3cc4oc5cc([N+](=O)[O-])ccc5[nH]c4cc3oc3c(NCCN4CCCC4)c(F)cc(c1=O)c32 [compound 552] |
| 0.45 | CN1CCN(CCCNc2c(F)cc3c(=O)c(C(=O)NCCCN4CCOCC4)cn4c5cc6c(=O)c7ccccc7c(=O)c6cc5oc2c34)CC1 [compound 492] |
| 1.75 | CN(CCCNc1c(F)cc2c(=O)c(C(=O)NCCC3CCCN3C)cn3c2c1Oc1cc2ccccc2cc1-3)c1ccccc1 (centres unmarked) [compound 263] |
| 2.5 | CN(C)c1ccc(NC(=O)c2cn3c4c(c(N5CC[C@@H](N)C5)c(F)cc4c2=O)Oc2c-3ccc3ccccc23)cc1 [compound 82] |
| 0.75 | CC1CCCC(C)N1CCCNC(=O)c1cn2c3c(c(N4CCC(N)C4)c(F)cc3c1=O)Oc1cc3ccccc3cc1-2 (centres unmarked) [compound 465] |
| 1.75 | CN1CCCC1CCNc1c(F)cc2c(=O)c(C(N)=O)cn3c2c1Oc1cc2ccccc2cc1-3 (centres unmarked) [compound 298] |
| 1.75 | CN1CCCC1CCNC(=O)c1cn2c3c(c(NCCN4CCCC4)ccc3c1=O)Oc1cc3ccccc3cc1-2 (centres unmarked) [compound 266] |
| 1.75 | Nc1ccc2[nH]c3cc4oc5c(NCCN6CCCC6)c(F)cc6c(=O)c(C(=O)O)cn(c4cc3oc2c1)c56 [compound 9] |
| 1.75 | CN1CCCC1CCNC(=O)c1cn2c3c(c(N4CCNC(c5cccnc5)C4)c(F)cc3c1=O)Oc1cc3ccccc3cc1-2 (centres unmarked) [compound 265] |
| 2.5 | CN1CCCC1CCNC(=O)c1cn2c3c(c(NCCN4CCCC4)c(F)cc3c1=O)Oc1cc3ccccc3cc1-2 (centres unmarked) [compound 73] |
| 1.75 | CC1CCCC(C)N1CCCNc1c(F)cc2c(=O)c(C(=O)NCCC3CCCN3C)cn3c2c1Oc1cc2ccccc2cc1-3 (centres unmarked) [compound 296] |

| IC50 [µM] | Compound |
| --- | --- |
| 1 | N=C(N)NCCCNC(=O)c1cn2c3c(c(NCCN4CCCC4)c(F)cc3c1=O)Oc1cc3ccccc3cc1-2 [compound 333] |
| 1 | CN(C)CCCCNc1ccc2c(=O)c(C(=O)NCCN3CCCC3)cn3c2c1Oc1cc2ccccc2cc1-3 [compound 326] |
| 0.75 | CN1CCN(CCCNc2c(F)cc3c(=O)c(C(=O)O)cn4c5cc6oc7cc(N)ccc7[nH]c6cc5oc2c34)CC1 [compound 22] |
| 2.5 | O=C(NCCN1CCOCC1)c1cn2c3c(c(NCCCN4CCOCC4)c(F)cc3c1=O)Oc1cc3ccccc3cc1-2 [compound 48] |
| 0.75 | CN1CCCC1CCNC(=O)c1cn2c3cc4c(cc3oc3c(NCCN5CCOCC5)c(F)cc(c1=O)c32)c(=O)c1ccccc14 (centres unmarked) [compound 422] |
| 1 | CN(C)CC(C)(C)CNC(=O)c1cn2c3c(c(N4CCC(N)C4)c(F)cc3c1=O)Oc1cc3ccccc3cc1-2 (centres unmarked) [compound 329] |
| 1.75 | CN1CCN(CCCNC(=O)c2cn3c4cc5c(=O)c6ccccc6c(=O)c5cc4oc4c(NCCC5CCCN5C)c(F)cc(c2=O)c43)CC1 (centres unmarked) [compound 165] |
| 1.75 | CN(C)CCCCNC(=O)c1cn2c3c(c(NCCC4CCCN4C)c(F)cc3c1=O)Oc1cc3ccccc3cc1-2 (centres unmarked) [compound 125] |
| 1.75 | CN1CCCC1CCNC(=O)c1cn2c3c(c(NCCc4c[nH]c5ccccc45)c(F)cc3c1=O)Oc1cc3ccccc3cc1-2 (centres unmarked) [compound 287] |
| 1.75 | CCCCN1CCC(CNC(=O)c2cn3c4c(c(N5CCC(N)C5)c(F)cc4c2=O)Oc2cc4ccccc4cc2-3)CC1 (centres unmarked) [compound 302] |
| 2.5 | O=C(NCCCN1CCOCC1)c1cn2c3c(c(NCCN4CCCC4)c(F)cc3c1=O)Oc1cc3ccccc3cc1-2 [compound 69] |
| 1.75 | O=C(NCCN1CCCC1)c1cn2c3c(c(NCCN4CCCC4)c(F)cc3c1=O)Oc1c-2ccc2ccccc12 [compound 139] |
| 1.75 | CN(C)CCCCNC(=O)c1cn2c3c(c(N4CCC(N)C4)c(F)c(N)c3c1=O)Oc1cc3ccccc3cc1-2 (centres unmarked) [compound 237] |
| 0.75 | CN1CCCC1CCNCC(=O)N[C@@H]1CCN(c2c(F)cc3c(=O)c(C(=O)N4CCCCC4)cn4c3c2Oc2cc3c(cc2-4)oc2ccccc23)C1 (some centres unmarked) [compound 413] |
| 0.75 | CN1CCCC1CCNC(=O)c1cn2c3c(c(NC4CCCNC4)c(F)cc3c1=O)Oc1cc3ccccc3cc1-2 (centres unmarked) [compound 433] |
| 0.75 | CN(C)CCCCNc1c(F)cc2c(=O)c(C(=O)NCCCN3CCOCC3)cn3c2c1Oc1cc2ccccc2cc1-3 [compound 397] |
| 1.05 | CCN(CC)CCNc1c(F)cc2c(=O)c(C(=O)N3CCOCC3)cn3c2c1Oc1cc2ccccc2cc1-3 [compound 305] |
| 1.75 | CN(C)/C=N/CCCNC(=O)c1cn2c3c(c(N4CC[C@@H](NC(=O)OC(C)(C)C)C4)c(F)cc3c1=O)Oc1cc3ccccc3cc1-2 [compound 211] |
| 1.75 | CN1CCCC1CCNc1c(F)cc2c(=O)c(C(=O)O)cn3c2c1Oc1cc2ccccc2cc1-3 (centres unmarked) [compound 7] |
| 2.5 | O=C(NCCN1CCCC1)c1cn2c3c(c(NCCN4CCOCC4)c(F)cc3c1=O)Oc1cc3ccccc3cc1-2 [compound 58] |
| 0.75 | CN1CCCC1CCNC(=O)c1cn2c3c(c(NCCC4CCCN4C)ccc3c1=O)Oc1cc3ccccc3cc1-2 (centres unmarked) [compound 449] |
